Several values for one entry are separate records, joined by “and”; a condition that tells them apart may be missing. Equal entries are not always repeated. Values belong to the compound of their own block, whether it stands above or below them.
Test system: 628569-122-R-J1-PDC complex spheroid viability
Experiment: Anticancer human tumor 628569-122-R-J1-PDC patient-derived head and neck squamous carcinoma cell line growth inhibition [CLK]
Conditions: for viability, T/C: stronger effect = lower value
How it was run: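 Multi-cell-type spheroids combined patient-derived tumor cells with HUVEC endothelial cells and human mesenchymal stem cells. Paired agents were dosed in half-log steps down from about clinical Cmax, or from 10 microM where Cmax was unknown.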

[1] = curve of first compound, second compound 0.0316 µM
[2] = curve of first compound, second compound 0.1 µM
[3] = curve of first compound, second compound 0.316 µM
[4] = curve of first compound, second compound 1 µM
[5] = curve of first compound, second compound 3.16 µM
[6] = curve of first compound, second compound 10 µM
[7] = second compound 0.0316 µM, first compound 0.0316 µM
[8] = second compound 0.0316 µM, first compound 0.1 µM
[9] = second compound 0.0316 µM, first compound 0.316 µM
[10] = second compound 0.0316 µM, first compound 1 µM
[11] = second compound 0.0316 µM, first compound 3.16 µM
[12] = second compound 0.0316 µM, first compound 10 µM
[13] = second compound 0.1 µM, first compound 0.0316 µM
[14] = second compound 0.1 µM, first compound 0.1 µM
[15] = second compound 0.1 µM, first compound 0.316 µM
[16] = second compound 0.1 µM, first compound 1 µM
[17] = second compound 0.1 µM, first compound 3.16 µM
[18] = second compound 0.1 µM, first compound 10 µM
[19] = second compound 0.316 µM, first compound 0.0316 µM
[20] = second compound 0.316 µM, first compound 0.1 µM
[21] = second compound 0.316 µM, first compound 0.316 µM
[22] = second compound 0.316 µM, first compound 1 µM
[23] = second compound 0.316 µM, first compound 3.16 µM
[24] = second compound 0.316 µM, first compound 10 µM
[25] = second compound 1 µM, first compound 0.0316 µM
[26] = second compound 1 µM, first compound 0.1 µM
[27] = second compound 1 µM, first compound 0.316 µM
[28] = second compound 1 µM, first compound 1 µM
[29] = second compound 1 µM, first compound 3.16 µM
[30] = second compound 1 µM, first compound 10 µM
[31] = second compound 3.16 µM, first compound 0.0316 µM
[32] = second compound 3.16 µM, first compound 0.1 µM
[33] = second compound 3.16 µM, first compound 0.316 µM
[34] = second compound 3.16 µM, first compound 1 µM
[35] = second compound 3.16 µM, first compound 3.16 µM
[36] = second compound 3.16 µM, first compound 10 µM
[37] = second compound 10 µM, first compound 0.0316 µM
[38] = second compound 10 µM, first compound 0.1 µM
[39] = second compound 10 µM, first compound 0.316 µM
[40] = second compound 10 µM, first compound 1 µM
[41] = second compound 10 µM, first compound 3.16 µM
[42] = second compound 10 µM, first compound 10 µM
[43] = second compound 0.0316 µM, first compound 0.00316 µM
[44] = second compound 0.0316 µM, first compound 0.01 µM
[45] = second compound 0.1 µM, first compound 0.00316 µM
[46] = second compound 0.1 µM, first compound 0.01 µM
[47] = second compound 0.316 µM, first compound 0.00316 µM
[48] = second compound 0.316 µM, first compound 0.01 µM
[49] = second compound 1 µM, first compound 0.00316 µM
[50] = second compound 1 µM, first compound 0.01 µM
[51] = second compound 3.16 µM, first compound 0.00316 µM
[52] = second compound 3.16 µM, first compound 0.01 µM
[53] = second compound 10 µM, first compound 0.00316 µM
[54] = second compound 10 µM, first compound 0.01 µM
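Also: spheroids exposed to agents for seven days before readout.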
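For viability, T/C in this document: 100% = DMSO vehicle control viability.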

IC50 (curve of compound): > 10000 nM
SMILES: C=CC(=O)N1CCN(c2nc(=O)n(-c3c(C)ccnc3C(C)C)c3nc(-c4c(O)cccc4F)c(F)cc23)C(C)C1 (configuration not stated)
viability, T/C (compound 0.0316 µM): 88.8% and 84.2%
viability, T/C (compound 0.1 µM): 95.5% and 87.3%
viability, T/C (compound 0.316 µM): 92.8% and 92.9%
viability, T/C (compound 1 µM): 113% and 101%
viability, T/C (compound 3.16 µM): 124% and 132%
viability, T/C (compound 10 µM): 118% and 124%

SMILES: CC1(C)CCC(CN2CCN(c3ccc(C(=O)NS(=O)(=O)c4ccc(NCC5CCOCC5)c([N+](=O)[O-])c4)c(Oc4cnc5[nH]ccc5c4)c3)CC2)=C(c2ccc(Cl)cc2)C1 + CN1CCN(c2cc(C(=O)Nc3cc4cc(-c5cnn(C)c5)ccc4cn3)ccn2)CC1
IC50 [1]: > 10000 nM
IC50 [2]: > 10000 nM
IC50 [3]: < 31.6 nM
IC50 [4]: < 31.6 nM
IC50 [5]: < 31.6 nM
IC50 [6]: < 31.6 nM
viability, T/C [7]: 94%
viability, T/C [8]: 105%
viability, T/C [9]: 103%
viability, T/C [10]: 96%
viability, T/C [11]: 97%
viability, T/C [12]: 85.6%
viability, T/C [13]: 70.8%
viability, T/C [14]: 63.6%
viability, T/C [15]: 78.5%
viability, T/C [16]: 67.7%
viability, T/C [17]: 71.1%
viability, T/C [18]: 69.5%
viability, T/C [19]: 36.1%
viability, T/C [20]: 29.7%
viability, T/C [21]: 41.3%
viability, T/C [22]: 36%
viability, T/C [23]: 28.4%
viability, T/C [24]: 22.4%
viability, T/C [25]: 10.8%
viability, T/C [26]: 13.3%
viability, T/C [27]: 5.93%
viability, T/C [28]: 9.88%
viability, T/C [29]: 10.1%
viability, T/C [30]: 3.58%
viability, T/C [31]: 8.81%
viability, T/C [32]: 8.56%
viability, T/C [33]: 6.4%
viability, T/C [34]: 7.84%
viability, T/C [35]: 8.73%
viability, T/C [36]: 3.29%
viability, T/C [37]: 7.98%
viability, T/C [38]: 2.99%
viability, T/C [39]: 4.03%
viability, T/C [40]: 8.3%
viability, T/C [41]: 3.6%
viability, T/C [42]: 0.85%

SMILES: Nc1ccccc1NC(=O)c1ccc(CNC(=O)OCc2cccnc2)cc1 + CN1CCN(c2cc(C(=O)Nc3cc4cc(-c5cnn(C)c5)ccc4cn3)ccn2)CC1
IC50 [1]: 7610 nM
IC50 [2]: 4780 nM
IC50 [3]: < 31.6 nM
IC50 [4]: < 31.6 nM
IC50 [5]: < 31.6 nM
IC50 [6]: < 31.6 nM
viability, T/C [7]: 93.5%
viability, T/C [8]: 103%
viability, T/C [9]: 98.4%
viability, T/C [10]: 162%
viability, T/C [11]: 153%
viability, T/C [12]: 27.7%
viability, T/C [13]: 54.7%
viability, T/C [14]: 63%
viability, T/C [15]: 76.5%
viability, T/C [16]: 90.9%
viability, T/C [17]: 91.7%
viability, T/C [18]: 4.63%
viability, T/C [19]: 40.1%
viability, T/C [20]: 30.8%
viability, T/C [21]: 37.5%
viability, T/C [22]: 30.2%
viability, T/C [23]: 7.28%
viability, T/C [24]: 4.48%
viability, T/C [25]: 12.7%
viability, T/C [26]: 7.04%
viability, T/C [27]: 7.87%
viability, T/C [28]: 6.5%
viability, T/C [29]: 7%
viability, T/C [30]: 7.23%
viability, T/C [31]: 7.85%
viability, T/C [32]: 3.97%
viability, T/C [33]: 7.25%
viability, T/C [34]: 5.7%
viability, T/C [35]: 8.72%
viability, T/C [36]: 6.19%
viability, T/C [37]: 4.78%
viability, T/C [38]: 5.48%
viability, T/C [39]: 5.47%
viability, T/C [40]: 5.41%
viability, T/C [41]: 10%
viability, T/C [42]: 1.39%

SMILES: CCN1CCN(Cc2ccc(Nc3ncc(F)c(-c4cc(F)c5nc(C)n(C(C)C)c5c4)n3)nc2)CC1 + CN1CCN(c2cc(C(=O)Nc3cc4cc(-c5cnn(C)c5)ccc4cn3)ccn2)CC1
IC50 [1]: > 1000 nM
IC50 [2]: > 1000 nM
IC50 [3]: < 3.16 nM
IC50 [4]: < 3.16 nM
IC50 [5]: < 3.16 nM
IC50 [6]: < 3.16 nM
viability, T/C [43]: 91.4%
viability, T/C [44]: 85.2%
viability, T/C [7]: 73.7%
viability, T/C [8]: 79.6%
viability, T/C [9]: 132%
viability, T/C [10]: 181%
viability, T/C [45]: 72.8%
viability, T/C [46]: 55.6%
viability, T/C [13]: 64.6%
viability, T/C [14]: 75.3%
viability, T/C [15]: 96.8%
viability, T/C [16]: 157%
viability, T/C [47]: 42.6%
viability, T/C [48]: 43.2%
viability, T/C [19]: 48.1%
viability, T/C [20]: 53.1%
viability, T/C [21]: 81.8%
viability, T/C [22]: 88.4%
viability, T/C [49]: 10.7%
viability, T/C [50]: 5.74%
viability, T/C [25]: 6.1%
viability, T/C [26]: 7.58%
viability, T/C [27]: 12%
viability, T/C [28]: 12.2%
viability, T/C [51]: 9.03%
viability, T/C [52]: 6.91%
viability, T/C [31]: 7.06%
viability, T/C [32]: 8.11%
viability, T/C [33]: 10.9%
viability, T/C [34]: 11.1%
viability, T/C [53]: 9.28%
viability, T/C [54]: 1.85%
viability, T/C [37]: 3.61%
viability, T/C [38]: 4.38%
viability, T/C [39]: 8.89%
viability, T/C [40]: 4.27%

SMILES: Cn1ncnc1[C@H]1c2n[nH]c(=O)c3cc(F)cc(c23)N[C@@H]1c1ccc(F)cc1 + CN1CCN(c2cc(C(=O)Nc3cc4cc(-c5cnn(C)c5)ccc4cn3)ccn2)CC1
IC50 [1]: > 100 nM
IC50 [2]: 69 nM
IC50 [3]: < 0.316 nM
IC50 [4]: < 0.316 nM
IC50 [5]: < 0.316 nM
IC50 [6]: < 0.316 nM
viability, T/C (second compound 0.0316 µM, first compound 0.000316 µM): 91.6%
viability, T/C (second compound 0.0316 µM, first compound 0.001 µM): 98.2%
viability, T/C [43]: 89.9%
viability, T/C [44]: 92.5%
viability, T/C [7]: 82.7%
viability, T/C [8]: 58.4%
viability, T/C (second compound 0.1 µM, first compound 0.000316 µM): 58.3%
viability, T/C (second compound 0.1 µM, first compound 0.001 µM): 68.8%
viability, T/C [45]: 69.9%
viability, T/C [46]: 62.5%
viability, T/C [13]: 53.8%
viability, T/C [14]: 47.5%
viability, T/C (second compound 0.316 µM, first compound 0.000316 µM): 35.3%
viability, T/C (second compound 0.316 µM, first compound 0.001 µM): 31.6%
viability, T/C [47]: 33.2%
viability, T/C [48]: 34.2%
viability, T/C [19]: 33%
viability, T/C [20]: 21.4%
viability, T/C (second compound 1 µM, first compound 0.000316 µM): 12.2%
viability, T/C (second compound 1 µM, first compound 0.001 µM): 4.22%
viability, T/C [49]: 4.14%
viability, T/C [50]: 4.53%
viability, T/C [25]: 6.11%
viability, T/C [26]: 5.95%
viability, T/C (second compound 3.16 µM, first compound 0.000316 µM): 9.51%
viability, T/C (second compound 3.16 µM, first compound 0.001 µM): 3.28%
viability, T/C [51]: 6.67%
viability, T/C [52]: 8.93%
viability, T/C [31]: 9.05%
viability, T/C [32]: 5.6%
viability, T/C (second compound 10 µM, first compound 0.000316 µM): 7.27%
viability, T/C (second compound 10 µM, first compound 0.001 µM): 1.99%
viability, T/C [53]: 2.02%
viability, T/C [54]: 9.25%
viability, T/C [37]: 4.57%
viability, T/C [38]: 0.98%

IC50 (curve of compound): > 10000 nM and 9090 nM
SMILES: Nc1ccccc1NC(=O)c1ccc(CNC(=O)OCc2cccnc2)cc1
viability, T/C (compound 0.0316 µM): 91% and 99.9%
viability, T/C (compound 0.1 µM): 87.9% and 94.8%
viability, T/C (compound 0.316 µM): 123% and 125%
viability, T/C (compound 1 µM): 151% and 140%
viability, T/C (compound 3.16 µM): 135% and 121%
viability, T/C (compound 10 µM): 52.9% and 43.9%

Source: PubChem BioAssay AID2060611 (Molecular Pharmacology Branch, DTP, NCI, 2025)
